Laboratory results as given in paper doi:10.1101/2023.10.02.559746v1 (biorxiv, 2023).

Biological target: T1, RALY (Homo sapiens, UniProt Q9UKM9)
T1 sequence (Q9UKM9 2-306): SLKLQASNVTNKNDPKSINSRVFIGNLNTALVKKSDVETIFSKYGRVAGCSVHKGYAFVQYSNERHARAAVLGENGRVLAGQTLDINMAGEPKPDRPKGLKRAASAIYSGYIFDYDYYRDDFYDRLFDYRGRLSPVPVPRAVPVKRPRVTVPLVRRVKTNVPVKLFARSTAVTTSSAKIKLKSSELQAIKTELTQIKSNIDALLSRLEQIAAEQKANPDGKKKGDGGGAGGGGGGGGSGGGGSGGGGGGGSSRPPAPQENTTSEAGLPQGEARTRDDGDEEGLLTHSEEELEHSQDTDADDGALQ
Experiment: surface plasmon resonance imaging
Format: binding

- Kd: 15.5 µM
Structure (SMILES): CC(C)[C@H](CN)NC[C@H](C)NS(=O)(=O)c1ccc(C(C)(C)C)cc1 [2470-51, N-((S)-1-(((R)-1-amino-3-methylbutan-2-yl)amino)propan-2-yl)-4-(tert-butyl)benzenesulfonamide]
